Reference: patent publication US12121530B2, “Composition and methods for treating articulating joint disorders with nucleoside reverse transcriptase inhibitors” (RHODE ISLAND HOSPITAL, priority 2018, dated 2024)
Entries after “also recorded” stand apart in the source; their conditions may differ. Values belong to the molecule of their own block, whether it stands above or below them.

Legend:
[1] = system: mouse primary chondrocytes; assay: RT-qPCR gene expression in mouse primary chondrocytes treated with 3TC or FTC at various dosages; type: cell-based
Experimental: Rib cages were sterilely isolated from neonatal mice (within 7-day-old) of desired genotypes and rinsed with HBSS for five times. To remove unspecific tissues, rib cages were digested in Collagenase D (3 μg/mL, Roche, Cat. 11088882001, Mannheim, Germany) for 2-4 hrs at 37° C. and rinsed with HBSS (Gibco®, Grand Island, N.Y. 14072 USA) for five times to remove detached unspecific tissues. To detach chondrocytes from rib cages, the samples underwent secondary digestion in Collagenase D (3 μg/mL) for at least 4 hrs at 37° C. with constant agitation (200 rpm). Detached chondrocytes were pelleted to remove excessive Collagenase D and resuspended in complete medium of DMEM (Gibco®, Grand Island, N.Y. 14072 USA) which contains 10% FBS, 100 U/mL penicillin and 100 μg/mL streptomycin (Gibco®, Grand Island, N.Y. 14072 USA). Growth plate PCs were grown at 37° C. in an atmosphere of 5% CO2. The media was changed on the following day to remove remaining Collagenase D and every 3 days thereafter. Similarly, articular cartilages were sterilely isolated under dissection microscope from neonatal mice (within 7-day-old) of desired genotypes and rinsed with HBSS for five times. In brief, the skins of hindlimbs were removed and transections on Ilia and muscles around hip joints were made to detach hindlimbs from torsi, then transferred to a petri dish. Under a dissection microscope placed in a cell culture hood, soft tissues were cleared while knee and hip joints were exposed. Femur heads could be easily peeled off whilst a fine cut of epiphyses based on vascularization were made to isolate articular cartilage from secondary ossification center. Beyond that, isolated tissues were minced into finer fragments and then put together before undergoing HBSS rinse and subsequent Collagenase D digestion. To remove unspecific tissues, articular cartilages were minced and digested in Collagenase D (3 μg/mL) for 2 hrs at 37° C. and rinsed with HBSS for five times to remove detached unspecific tissues. To detach chondrocytes from cartilage matrix, the samples underwent secondary digestion in Collagenase D (3 μg/mL) for at least 4 hrs at 37° C. with constant agitation (200 rpm). Detached chondrocytes were pelleted to remove excessive Collagenase D and resuspended in complete medium of DMEM which contains 10% FBS, 100 U/mL penicillin and 100 μg/mL streptomycin. Articular PCs were grown at 37° C. in an atmosphere of 5% CO2. The media was changed on the following day to remove remaining Collagenase D and every 3 days thereafter. Both miRNA and mRNA were extracted using miRNeasy Mini Kit (Qiagen®, Germantown, Md., USA) and reversely transcribed using […] (Qiagen®, Germantown, Md., USA) according to manufacturer's instruction. qPCR was performed using SYBR Green PCR master mix (Qiagen®, Germantown, Md., USA) on a Bio-Rad CFX96 real-time PCR detection system (Bio-Rad®, Hercules, Calif., USA). Amplification conditions are as follows: 95° C. for 10 min, 40 cycles of 95° C. for 10'', 55° C. for 30'', and 72° C. for 30''. 18S ribosomal or GAPDH RNA was used as an internal control gene to normalize the mRNAs level. The ubiquitously expressed snRNA U6 was used as an endogenous control for miRNAs level. […] The primers for miR-365 were purchased from Qiagen. Fold changes of mRNA and miRNAs were calculated by the 2^^(ΔΔCt) method and normalized to 18S/GAPDH or U6 snRNA, respectively.

[2] = system: C28 transiently over-express miR-365; assay: C28 transiently over-expressing miR-365 treated with 3TC, RT-qPCR; type: cell-based, human
Experimental: Cells were seeded onto desired size plates to reach 70-90% confluence and transfected with miR-365 mimic or miRNA mimic negative control or miR-365 inhibitor or inhibitor negative control (Dharmacon®, Lafayette, Colo., USA). Lipofectamine 3000 (Invitrogen®, Waltham, Mass., USA) was used as transfection reagents. Medium is changed 24 hrs after transfection. 48 hrs post transfection, cells were lysated in either QIAzol for RNA purification and real-time PCR analysis or ice-cold lysis buffer containing protease inhibitor and phosphatase inhibitor for western blot analysis. MiR-365 mimic, miRNA mimic negative control, miR-365 inhibitor and inhibitor negative control were typically used at a final concentration of 25 nM unless otherwise stated.
Both miRNA and mRNA were extracted using miRNeasy Mini Kit (Qiagen®, Germantown, Md., USA) and reversely transcribed using miScriptIIRT Kit (Qiagen®, Germantown, Md., USA) according to manufacturer's instruction. qPCR was performed using SYBR Green PCR master mix (Qiagen®, Germantown, Md., USA) on a Bio-Rad CFX96 real-time PCR detection system (Bio-Rad®, Hercules, Calif., USA). Amplification conditions are as follows: 95° C. for 10 min, 40 cycles of 95° C. for 10″, 55° C. for 30″, and 72° C. for 30″. 18S ribosomal or GAPDH RNA was used as an internal control gene to normalize the mRNAs level. The ubiquitously expressed snRNA U6 was used as an endogenous control for miRNAs level. Primers were synthesized by Integrated DNA Technologies (http://www.idtdna.com). The primers for miR-365 were purchased from Qiagen. Fold changes of mRNA and miRNAs were calculated by the 2^^(ΔΔCt) method and normalized to 18S/GAPDH or U6 snRNA, respectively.

miR-365 Tg mice = assay: primary OA model: miR-365 Tg mice given oral 3TC for 4 months; type: in vivo, mouse; conditions: for tibial subchondral BV/TV / connectivity density of subchondral bone / trabecular number of subchondral bone / trabecular separation of subchondral bone: microCT
[3] = system: mouse primary chondrocytes; assay: RT-qPCR gene expression in mouse primary chondrocytes treated with 3TC or FTC at various dosages; type: cell-based; conditions: mouse chondrocytes (FIG. 3H), western blot Line-1-ORF1
[4] = mouse chondrocytes, at lower than 100 μM concentrations
[5] = mouse primary chondrocytes, RNA level, various dosages
[6] = human chondrocytes over-expressing miR-365, various concentrations
[7] = miR-365 Tg mice, 3TC for 4 months, RT-qPCR
[8] = miR-365 Tg mice, 3TC for four months

SMILES: Nc1nc(=O)n([C@@H]2CS[C@H](CO)O2)cc1F [FTC, 2′,3′-dideoxy-5-fluoro-3′-thiacytidine]
Acan levels [1, 4]: increased | Col2a1 levels [1, 4]: increased | Acan expression [1, 5]: promotes | Adamts5 expression [1, 5]: induces | Col2 (Col2a1) expression [1, 5]: promotes | Col10 (Col10a1) expression [1, 5]: induces | Ifn-α (Inf-α) expression [1, 5]: suppresses; also recorded: significantly inhibited | Line-1 expression [1, 5]: suppresses; also recorded: significantly inhibited | Mmp3 expression [1, 5]: induces | Mmp13 expression [1, 5]: induces | Nlrp3 expression [1, 5]: suppresses; also recorded: significantly inhibited | P2rx7 expression [1, 5]: suppresses; also recorded: significantly inhibited

tibial subchondral BV/TV (miR-365 Tg mice; Cre control mice, 3TC 4 months): did not alter | connectivity density of subchondral bone (miR-365 Tg mice; Cre mice, 3TC 4 months): increased | trabecular number of subchondral bone (miR-365 Tg mice; Cre mice, 3TC 4 months): increased | trabecular separation of subchondral bone (miR-365 Tg mice; Cre mice, 3TC 4 months): decreased | subchondral BMD (miR-365 Tg mice; miR-365 Tg mice, 3TC 4 months): without decreasing | connectivity density of subchondral bone (miR-365 Tg mice; miR-365 Tg mice, 3TC 4 months): no effect | tibial subchondral BV/TV (miR-365 Tg mice; miR-365 Tg mice, 3TC 4 months): did not alter | trabecular number of subchondral bone (miR-365 Tg mice; miR-365 Tg mice, 3TC 4 months): no effect | trabecular separation of subchondral bone (miR-365 Tg mice; miR-365 Tg mice, 3TC 4 months): no effect
SMILES: Nc1ccn([C@@H]2CS[C@H](CO)O2)c(=O)n1 [3TC, lamivudine]
Acan expression [1, 5]: stimulated | Adamts5 expression [1, 5]: suppresses; also recorded: inhibited | Col2 (Col2a1) expression [1, 5]: promotes; also recorded: stimulated | Col10 (Col10a1) expression [1, 5]: suppresses; also recorded: inhibited | Ifn-α (Inf-α) expression [1, 5]: suppresses | Line-1 expression [1, 5]: suppresses; also recorded: inhibited | Mmp13 expression [1, 5]: inhibited | ACAN suppression by miR-365 [2, 6]: rectifies | miR-365 induced up-regulation of ADAMTS5 [2, 6]: completely abolishes | miR-365 induced up-regulation of COL10 [2, 6]: completely abolishes | miR-365 induced up-regulation of IHH [2, 6]: completely abolishes | miR-365 induced up-regulation of LINE-1 [2, 6]: completely abolishes | effect of miR-365 on L1, ADAMTS5, IHH, COL10A1 and ACAN levels ([2]; miR-365 transfected human chondrocytes (FIG. 3O-3T)): abolished and in some cases even reversed | early onset of OA / OA pathogenesis (Safranin O staining, OARSI quantification) (miR-365 Tg mice; 6-month-old miR-365 Tg mice, 3TC for 4 months): abolished; also recorded: prevented early onset of OA | Acan levels in articular cartilage (miR-365 Tg mice; [7]): unchanged | Adamts5 expression in articular cartilage (miR-365 Tg mice; [7]): significantly inhibited; also recorded: significantly suppressed | Alu expression in articular cartilage (miR-365 Tg mice; [7]): significantly suppressed | Col10 (Col10a1) expression in articular cartilage (miR-365 Tg mice; [7]): significantly inhibited; also recorded: significantly suppressed | Inf-α expression in articular cartilage (miR-365 Tg mice; [7]): significantly inhibited | Line-1 (Line-1-ORF2) expression in articular cartilage (miR-365 Tg mice; [7]): significantly inhibited; also recorded: abolished; also recorded: significantly suppressed | Sqstm1 expression in articular cartilage (miR-365 Tg mice; [7]): inhibition was abolished; also recorded: significantly up-regulated | Zc3hav1 (Zac3hav1) expression in articular cartilage (miR-365 Tg mice; [7]): inhibition was abolished; also recorded: significantly up-regulated | Dicer mRNA level in cartilage (miR-365 Tg mice; [8]): inhibition was abolished | Prkdc mRNA level in cartilage (miR-365 Tg mice; [8]): inhibition was abolished | miR-365 expression in articular cartilage (miR-365 Tg mice; miR-365 Tg mice, oral 3TC for 4 months, RT-qPCR): abolished; also recorded: significantly suppressed | Ihh expression in vivo (miR-365 Tg mice; mice treated with 3TC from 2-month old till 6-month old): suppresses only Line-1 but not Ihh | L1 expression at protein level [3]: inhibited
